# Experimental data published in US20260256764A1, “COMPOSITIONS AND METHODS FOR ORAL DELIVERY OF SUSTAINED RELEASE CRYSTALLINE PRX-3140” (NANOPHARMACEUTICS, INC., priority 2023, published 2026).
# Tests used:
# [1] = tested on: more than 50 other receptors including GPCRs, ion channels and receptor tyrosine kinases; assay: binding to other receptors tested
# From the text: . The specific ligand binding to the receptors is defined as the difference between the total binding and the nonspecific binding determined in the presence of an excess of unlabelled ligand. […]
# [2] = Photostability study (ICH Q1B), HPLC; type: physicochemical
# Method: […]. Samples were exposed to ICH photostability guideline Q1B=1.2 million lux hours of cool, white fluorescent light & 200 watt hours/m2 of UVA light at […]. Samples were exposed for 2 days and tested using HPLC.
# […]. The light exposure was performed in a cabinet set at 25 degrees Celsius/60% RH.
# […]. Changes were evident for crystalline fine particle Form I of PRX-3140 potassium salt after exposure to UVA and white light. The sample changed color particularly on the upper exposed surface of the material and there were changes apparent in the HPLC data. […]. The single impurity profile met the specification (0.20) but significant changes were observed. There was an increase in the number of minor impurities, particularly in a region of the chromatogram between RRT 1.5 and 2.1. Total impurities increased from 0.20% in the control sample to 0.770 in the exposed sample. An impurity at RRT 1.83 which was not present before exposure to light was formed at 0.16% in the exposed sample. Other changes included a change in appearance of the material to a sticky solid and an increase in water content to 4.3% w/w.
# [3] = Forced degradation study (acid, base, 3% hydrogen peroxide), LC-UV-MS; type: physicochemical; conditions: 24 hours; for percent peak area at 250 nm, RRT 1.00 (purity of parent molecule) / percent peak area at 250 nm, RRT 1.05 (PRX-3140b): potassium salt
# Method: Example 4—Crystalline PRX-3140 Potassium Salt Forced Degradation Study. Crystalline fine particle Form I of PRX-3140 potassium salt was subjected to a forced degradation study using acid, base, or hydrogen peroxide exposure for 24 hours. Samples were neutralized and analyzed using LC-UV-MS.
# Sample Preparation: Crystalline fine particle Form I of PRX-3140 potassium salt, 50 mg, was weighed out into a 25 mL volumetric flask and taken to volume with water (2 mg/mL stock). One mL of stock was added to four, 4 mL vials. One mL of either 1N HCl, 1N NaOH, 3% H2O2, or DI Water (control) was added to the appropriate vial, mixed, and stored at room temperature for 24 hours. After storage, the samples of acid and base were neutralized by addition of 1 mL their counter solution. […] Samples were analyzed using LC-UV-MS.
# Table 5 lists a comparison for the control, acid, base, and peroxide samples showing percent peak area versus relative retention time (RRT) at 250 nm. While some minor changes can be noted between the control with the acid and base samples, the overall purity (peak area) of the parent molecule is just slightly higher for the acid and base sample. Some of the minor impurities appear to be reacting with the acid or base, potentially reforming to the parent.
# [4] = 30% peroxide degradation study; type: physicochemical; conditions: 18-hour exposure to 30% hydrogen peroxide; 250 nm
# Method: […]. Sample was evaporated to dryness and analyzed using LC/UV/MS and NMR analysis. Two major degradants are noted in the LC/UV/MS.
# […]. The solvent is removed under vacuum at RT, then acetonitrile (5 mL) was added to the residue and evaporated to dryness at 40 degrees Celsius. […].
# Two milligrams of the sample was weighed into a 4 mL vial. Two mL of 20/80 methanol/water was added to the vial and vortexed vigorously. FIG. 9A is a HPLC chromatogram of the H2O2 sample at 250 nm. Three major peaks are noted, including the parent molecule at 12.5 minutes. […]. Maximums are noted at 220, 250, and 320 nm. Chromatograms for all samples were collected at all three wavelengths with 250 nm as the primary wavelength based on lambda max. FIG. 10A is the UV spectra for the peak at 8.9 minutes. In comparison with the parent molecule, the high-end absorption is absent (320 nm). FIG. 10B is the UV spectra for the peak at 12.9 minutes. […]. An [M+H]+ is noted at 258.0 m/z with [M+H+NH3]+ at 275.1, [M+Na]+ at 280.1, and [2M+Na]+ at 537.1 m/z. It is noted that this is a fragile molecule and required the reduction of the Fragmentor Voltage from 150V down to 70V to see the protonated molecular ion. […] FIG. 11C is the mass spectra of the largest degradation product of PRX-3140b at 12.9 minutes, relative retention time (RRT) of 1.04 (compared to 1.05 in Example 4). […]
# blood glucose = assay: Blood glucose levels after oral PRX-3140 potassium salt; type: in vivo, human; conditions: 15 mg orally, single dose, fed conditions, male volunteers
# Method: Example 18—Blood Glucose Levels of Controls vs. Sustained-Release Oral PRX-3140 Potassium Salt Capsules. A Phase I, single dose escalation study under fed conditions was conducted in male volunteers with PRX-3140 potassium salt at the 15 mg dose level. […] The study was also conducted to examine the effects of PRX-3140 sustained-release capsule administration on the subjects' fasting and postprandial blood glucose concentrations. Subjects were monitored daily for vital signs (including blood pressure, heart rate, respiratory rate, and temperature) and adverse events. In addition, blood was drawn to assess glucose concentration. Glucose was tested within 60 minutes prior to meals in the morning and throughout the day at different timepoints.
# [5] = Acid (1N HCl), listed as PRX-3140 Potassium Salt
# [6] = Acid (1N HCl), listed as PRX-3140 potassium salt
# [7] = Base (1N NaOH), listed as PRX-3140 Potassium Salt
# [8] = Base (1N NaOH), listed as PRX-3140 potassium salt
# [9] = Control (DI Water), listed as PRX-3140 Potassium Salt
# [10] = Control (DI Water), listed as PRX-3140 potassium salt
# [11] = H2O2 (3%), listed as PRX-3140 Potassium Salt
# [12] = H2O2 (3%), listed as PRX-3140 potassium salt
smiles,measurement,setting,value
"CC(C)n1c(=O)c(C(=O)NCCCN2CCCCC2)c([O-])c2ccsc21.[K+] [PRX-3140, 6,7-Dihydro-4-hydroxy-7-isopropyl-6-oxo-N-(3-(piperidin-1-yl)propyl)thieno[2,3-b]pyridine-5-carboxamide potassium salt]",affinity for more than 50 other receptors tested,[1],no significant affinity
same,assay value,"[2]; Exposed Sample (ICH Q1B light, 2 days)",94.20 % w/w
same,Water Content - KF,"[2]; t = 0, listed as PRX-3140 potassium salt, potassium salt",0.900 % w/w
same,"percent peak area at 250 nm, RRT 0.99",[3]; Acid (1N HCl),0.07%
same,"percent peak area at 250 nm, RRT 1.08",[3]; Acid (1N HCl),0.11%
same,"percent peak area at 250 nm, RRT 1.11",[3]; Acid (1N HCl),0.04%
same,"percent peak area at 250 nm, RRT 1.27",[3]; Acid (1N HCl),0.04%
same,"percent peak area at 250 nm, RRT 1.34",[3]; Acid (1N HCl),0.15%
same,"percent peak area at 250 nm, RRT 1.53",[3]; Acid (1N HCl),0.43%
same,"percent peak area at 250 nm, RRT 1.79",[3]; Acid (1N HCl),0.04%
same,"percent peak area at 250 nm, RRT 2.51",[3]; Acid (1N HCl),0.06%
same,"percent peak area at 250 nm, RRT 2.70",[3]; Acid (1N HCl),0.13%
same,"percent peak area at 250 nm, RRT 1.00 (purity of parent molecule)",[3]; [5],98.94%
same,"percent peak area at 250 nm, RRT 1.05 (PRX-3140b)",[3]; [5],<0.03%
same,"percent peak area at 250 nm, RRT 1.00 (purity of parent molecule)",[3]; [6],98.9%
same,"percent peak area at 250 nm, RRT 1.05 (PRX-3140b)",[3]; [6],< 0.03%
same,"percent peak area at 250 nm, RRT 0.94",[3]; Base (1N NaOH),0.28%
same,"percent peak area at 250 nm, RRT 1.08",[3]; Base (1N NaOH),0.12%
same,"percent peak area at 250 nm, RRT 1.34",[3]; Base (1N NaOH),0.16%
same,"percent peak area at 250 nm, RRT 1.53",[3]; Base (1N NaOH),0.42%
same,"percent peak area at 250 nm, RRT 1.79",[3]; Base (1N NaOH),0.05%
same,"percent peak area at 250 nm, RRT 2.51",[3]; Base (1N NaOH),0.05%
same,"percent peak area at 250 nm, RRT 2.70",[3]; Base (1N NaOH),0.12%
same,"percent peak area at 250 nm, RRT 1.00 (purity of parent molecule)",[3]; [7],98.71%
same,"percent peak area at 250 nm, RRT 1.05 (PRX-3140b)",[3]; [7],<0.03%
same,"percent peak area at 250 nm, RRT 1.00 (purity of parent molecule)",[3]; [8],98.7%
same,"percent peak area at 250 nm, RRT 1.05 (PRX-3140b)",[3]; [8],< 0.03%
same,"percent peak area at 250 nm, RRT 1.08",[3]; Control (DI Water),0.12%
same,"percent peak area at 250 nm, RRT 1.11",[3]; Control (DI Water),0.04%
same,"percent peak area at 250 nm, RRT 1.34",[3]; Control (DI Water),0.17%
same,"percent peak area at 250 nm, RRT 1.53",[3]; Control (DI Water),0.42%
same,"percent peak area at 250 nm, RRT 1.71",[3]; Control (DI Water),0.23%
same,"percent peak area at 250 nm, RRT 1.79",[3]; Control (DI Water),0.11%
same,"percent peak area at 250 nm, RRT 1.93",[3]; Control (DI Water),0.06%
same,"percent peak area at 250 nm, RRT 2.51",[3]; Control (DI Water),0.06%
same,"percent peak area at 250 nm, RRT 2.70",[3]; Control (DI Water),0.18%
same,"percent peak area at 250 nm, RRT 1.00 (purity of parent molecule)",[3]; [9],98.60%
same,"percent peak area at 250 nm, RRT 1.05 (PRX-3140b)",[3]; [9],<0.03%
same,"percent peak area at 250 nm, RRT 1.00 (purity of parent molecule)",[3]; [10],98.6%
same,"percent peak area at 250 nm, RRT 1.05 (PRX-3140b)",[3]; [10],< 0.03%
same,"percent peak area at 250 nm, RRT 1.00 (purity of parent molecule)",[3]; Control (DI Water),98.6%
same,"percent peak area at 250 nm, RRT 0.78 (PRX-3140a)",[3]; H2O2 (3%),8.49%
same,"percent peak area at 250 nm, RRT 0.82",[3]; H2O2 (3%),0.10%
same,"percent peak area at 250 nm, RRT 1.08",[3]; H2O2 (3%),0.19%
same,"percent peak area at 250 nm, RRT 1.27",[3]; H2O2 (3%),0.21%
same,"percent peak area at 250 nm, RRT 1.34",[3]; H2O2 (3%),0.09%
same,"percent peak area at 250 nm, RRT 1.42",[3]; H2O2 (3%),0.32%
same,"percent peak area at 250 nm, RRT 1.53",[3]; H2O2 (3%),0.42%
same,"percent peak area at 250 nm, RRT 1.79",[3]; H2O2 (3%),0.19%
same,"percent peak area at 250 nm, RRT 2.70",[3]; H2O2 (3%),0.11%
same,"percent peak area at 250 nm, RRT 1.00 (purity of parent molecule)",[3]; [11],80.57%
same,"percent peak area at 250 nm, RRT 1.05 (PRX-3140b)",[3]; [11],9.06%
same,"percent peak area at 250 nm, RRT 1.00 (purity of parent molecule)",[3]; [12],80.6%
same,"percent peak area at 250 nm, RRT 1.05 (PRX-3140b)",[3]; [12],9.1%
same,"percent peak area at 250 nm, RRT 1.00 (purity of parent molecule)",[3]; H2O2 (3%),80.6%
same,purity of the parent molecule PRX-3140,[4],29.6%
same,mean blood glucose level decrease compared to control values,blood glucose,−19.5%
